From patent US20220132846A1, “1-PYRIDYL-PYRAZOLYL AMIDE COMPOUNDS AND PREPARATION AND USES THEREOF” (HUNAN RESEARCH INSTITUTE OF CHEMICAL INDUSTRY CO., LTD., priority 2019, published 2022)
Read-outs that look alike come from different tables or passages of the source.

What was measured:
[1] = tested on: Armyworm (Mythimna separata (Walker)); test: Test against armyworm, Potter tower method; type: in vivo; conditions: Mythimna separata, read-out: Activity (mortality) level against armyworm
Experimental: Potter tower method: the test compound was dissolved in an appropriate solvent such as N,N-dimethylformamide, and then diluted with 0.2% aqueous solution of Tween 80 to the desired concentration, Those without the test compounds were set as blank controls. The fresh and tender corn leaves were taken and cut into fragments of basically the same size, then put into a Petri dish (diameter 90 mm) padded with filter paper in advance. Ten third-instar larvae of test insects were transferred into the dish and then placed under the Potter spray tower for being sprayed, each concentration treatment was sprayed at the amount of 1 mL and replicated 3 times. The dish was covered and then placed in a chamber for culture and observed regularly, after 72 hours, the dead insects was investigated and recorded and the mean mortality was calculated. […]

Aphis fabae = test: Test against aphid, leaf dip method (Aphis fabae); type: in vivo; conditions: foliar; for mortality at 200 µg/mL / mortality at 500 µg/mL / mortality at 12.5 µg/mL / mortality at 50 µg/mL: read-out: Activity (mortality) level against Aphis fabae; for LC50: read-out: LC50 against Aphis fabae
Experimental: For evaluating the activity of the compounds of this invention against Homoptera pests, Aphis fabae, wheat aphids, etc. were selected as the test insects, and the activity of the compounds of this invention against aphids was measured by leaf dip method indoors.
Leaf dip method (Aphis fabae): the test compound was dissolved in an appropriate solvent such as N,N-dimethylformamide, and then diluted with 0.2% aqueous solution of Tween 80 to the desired concentration, Those without the test compounds were set as blank controls, the treatments were replicated 3 times. Horsebean seedlings with no less than twenty 3-day-old Aphis fabae per plant was cut from the stem, 5 horsebean seedlings with the insects were dipped in the test solution for 5 seconds, then inserted into a sponge filled with water after sucked dry using filter paper, then covered with a glass tube and placed in a chamber for culture. After 24 hours, the number of living and dead insects were investigated and the results were averaged. […]

[2] = 50 mg/L, third-instar larvae, after 72 hours
[3] = 500 mg/L, third-instar larvae, after 72 hours

Row | Compound | mortality at 50 µg/mL [1, 2] [%] | mortality at 500 µg/mL [1, 3] [%] | mortality at 200 µg/mL (Aphis fabae; 200 mg/L, after 24 hours) [%] | mortality at 500 µg/mL (Aphis fabae; 500 mg/L, after 24 hours) [%] | mortality at 12.5 µg/mL (Aphis fabae; 12.5 mg/L, after 24 hours) [%] | mortality at 50 µg/mL (Aphis fabae; 50 mg/L, after 24 hours) [%] | mortality at 12.5 µg/mL ([1]; 72 h) [%] | mortality at 50 µg/mL ([1]; 72 h) [%] | mortality at 500 µg/mL ([1]; 72 h) [%] | mortality at 12.5 µg/mL (Aphis fabae; 24 h) [%] | mortality at 50 µg/mL (Aphis fabae; 24 h) [%] | mortality at 200 µg/mL (Aphis fabae; 24 h) [%] | mortality at 500 µg/mL (Aphis fabae; 24 h) [%] | LC50 (Aphis fabae) [µg/mL]
1 | CCCN(C)C(=O)c1cc(Cl)cc(C)c1N(C)C(=O)c1cc(Br)nn1-c1ncccc1Cl [Compound 46, N-[2-methyl-4-chloro-6-[(methyl(propyl)amino)carbonyl]phenyl]-N-methyl-1-(3-chloro-2-pyridinyl)-3-bromo-1H-pyrazole-5-carboxamide] | 90 to 100 | 90 to 100 | 90 to 100 | 90 to 100 | – | – | – | – | – | – | – | – | – | –
2 | Cc1cc(Cl)cc(C(=S)N(C)C)c1N(C)C(=O)c1cc(Br)nn1-c1ncccc1Cl [Compound 47, N-[2-methyl-4-chloro-6-[(dimethylamino)thioxomethyl]phenyl]-N-methyl-1-(3-chloro-2-pyridinyl)-3-bromo-1H-pyrazole-5-carboxamide] | 90 to 100 | 90 to 100 | 90 to 100 | 90 to 100 | 90 to 100 | 90 to 100 | – | – | – | – | – | – | – | –
3 | CCN(CC)C(=O)c1cc(Br)cc(C)c1N(C)C(=O)c1cc(Br)nn1-c1ncccc1Cl [Compound 48, N-[2-methyl-4-bromo-6-[(diethylamino)carbonyl]phenyl]-N-methyl-1-(3-chloro-2-pyridinyl)-3-bromo-1H-pyrazole-5-carboxamide] | 90 to 100 | 90 to 100 | – | 90 to 100 | – | – | – | – | – | – | – | – | – | –
4 | CCN(CC)C(=O)c1cc(Br)cc(C)c1N(CC)C(=O)c1cc(Br)nn1-c1ncccc1Cl [Compound 49, N-[2-methyl-4-bromo-6-[(diethylamino)carbonyl]phenyl]-N-ethyl-1-(3-chloro-2-pyridinyl)-3-bromo-1H-pyrazole-5-carboxamide] | 90 to 100 | 90 to 100 | 90 to 100 | 90 to 100 | – | – | – | – | – | – | – | – | – | –
5 | CNC(=O)c1cc(C#N)cc(C)c1NC(=O)c1cc(Br)nn1-c1ncccc1Cl [Compound D2, cyantraniliprole, reference compound] | – | – | – | – | – | – | 90 to 100 | 90 to 100 | 90 to 100 | 90 to 100 | 90 to 100 | 90 to 100 | 90 to 100 | > 1
6 | CC(NC(=O)c1cc(Cl)cc(Br)c1NC(=O)c1cc(Br)nn1-c1ncccc1Cl)C1CC1 (stereo not drawn) [Compound D3, cyclaniliprole, reference compound] | – | – | – | – | – | – | 70 to 90 | 90 to 100 | 90 to 100 | 90 to 100 | 90 to 100 | 90 to 100 | 90 to 100 | > 1
